Source: patent EP2236511A2, “LIGANDS OF ALPHA-ADRENOCEPTORS AND OF DOPAMINE, HISTAMINE, IMIDAZOLINE AND SEROTONIN RECEPTORS AND THE USE THEREOF” (priority 2007, dated 2009)
Counter-ions that a name gives are not always drawn. Like-named read-outs stand apart in the source and are kept apart here.

Tests used:
adrenergic receptor α1A = molecular target: T1, adrenergic receptor α1A (Rattus norvegicus, UniProt P43140); experiment: Radioligand binding to adrenergic receptor α1A ([3H] Prazosin, rat submaxillary gland membranes); settings: for nH: Receptor α1A
T1 construct: membrane species from rat submaxillary glands (rat of Wistar breed) are prepared; from tissue; host or cells: rat (Wistar) submaxillary gland
T1 sequence (P43140 1-466): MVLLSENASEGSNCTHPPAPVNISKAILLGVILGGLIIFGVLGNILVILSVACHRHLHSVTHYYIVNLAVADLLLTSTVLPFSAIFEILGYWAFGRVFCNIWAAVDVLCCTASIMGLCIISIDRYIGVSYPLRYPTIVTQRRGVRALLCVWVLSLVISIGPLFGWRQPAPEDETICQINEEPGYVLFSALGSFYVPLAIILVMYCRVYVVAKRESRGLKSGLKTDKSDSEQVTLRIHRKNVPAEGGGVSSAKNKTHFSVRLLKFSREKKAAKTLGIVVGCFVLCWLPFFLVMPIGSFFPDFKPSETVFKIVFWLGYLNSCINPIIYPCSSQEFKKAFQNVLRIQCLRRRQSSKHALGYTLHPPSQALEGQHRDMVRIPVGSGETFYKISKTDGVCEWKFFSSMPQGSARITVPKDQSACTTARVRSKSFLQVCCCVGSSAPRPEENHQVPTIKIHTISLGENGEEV
Experimental: Determination of investigated compounds' binding to α1A receptor was carried out according to the method described in [Michel AD, Loury DN and Whiting R1. Identification of a single α1A-adrenoceptor corresponding to the α1A-subtype in rat submaxillary gland. […] Prazosin is used as positive control.

imidazoline receptor I2 = experiment: Radioligand binding to imidazoline receptor I2 ([3H] Idazoxan, rat brain membranes)
Experimental: For this purpose membrane species are prepared from rat (Wistar) brain homogenates by homogenization of them in glass homogenizer with the subsequent separation of plasmatic membranes from cell nuclei, mitochondrias and cell wreckages by differential centrifugation. […] After incubation the samples are filtered in vacuo on glass-microfiber filters G/F (Millipor, USA), filters are washed three times with cold solution of medium and radioactivity is measured by scintillation counter MicroBeta 340 (Perkin Elmer, USA). […] Idazoxan is used as positive control.
The tested compounds' binding to the receptor is determined by their ability to displace the radioligand and expressed in percent of displacement (%I). Values of %I are calculated according to the following equation: %I = (TA-CA)/(TA-NA)*100, [formula] wherein: TA - is the overall radioactivity in the presence of radioligand only, CA - is the radioactivity in the presence of radioligand and tested compound and NA - is a radioactivity in the presence of radioligand and Idazoxan (1 µM).

adrenergic receptor α1B = molecular target: T2, adrenergic receptor α1B (Rattus norvegicus, UniProt P15823); experiment: Radioligand binding to adrenergic receptor α1B ([3H] Prazosin, rat liver membranes); settings: for nH: Receptor α1B
T2 construct: membrane species from rat liver (rat of Wistar breed) are prepared; from tissue; host or cells: rat (Wistar) liver
T2 sequence (P15823 1-515): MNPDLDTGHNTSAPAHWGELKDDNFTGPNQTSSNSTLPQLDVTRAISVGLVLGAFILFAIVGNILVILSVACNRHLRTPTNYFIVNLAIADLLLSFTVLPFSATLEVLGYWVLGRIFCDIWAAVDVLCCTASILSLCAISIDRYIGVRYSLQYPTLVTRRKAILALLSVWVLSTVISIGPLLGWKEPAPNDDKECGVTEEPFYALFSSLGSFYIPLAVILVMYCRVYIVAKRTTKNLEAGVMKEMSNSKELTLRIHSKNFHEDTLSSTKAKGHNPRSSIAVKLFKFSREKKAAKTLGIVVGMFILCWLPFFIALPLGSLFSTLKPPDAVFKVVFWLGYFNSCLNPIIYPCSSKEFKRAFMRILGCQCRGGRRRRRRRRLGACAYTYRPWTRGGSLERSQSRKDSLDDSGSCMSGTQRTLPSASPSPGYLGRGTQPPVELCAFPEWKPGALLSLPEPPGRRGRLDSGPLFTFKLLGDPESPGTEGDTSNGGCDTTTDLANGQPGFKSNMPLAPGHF
From the text: Species heterogeneity of hepatic α1A-, α1B-, and α1C-subtypes. Biochem Biophys Res Commun. […] Prazosin is used as positive control.

[1] = molecular target: T3, recombinant human 5-HT2C receptor (Homo sapiens, UniProt P28335); experiment: Radioligand binding to serotonin receptor 5-HT2C ([3H] Mesulergine, CHO-K1 membranes); settings: for nH: 5-HT2C
T3 construct: expressed in transfected cells; host or cells: CHO-K1
T3 sequence (P28335 33-458): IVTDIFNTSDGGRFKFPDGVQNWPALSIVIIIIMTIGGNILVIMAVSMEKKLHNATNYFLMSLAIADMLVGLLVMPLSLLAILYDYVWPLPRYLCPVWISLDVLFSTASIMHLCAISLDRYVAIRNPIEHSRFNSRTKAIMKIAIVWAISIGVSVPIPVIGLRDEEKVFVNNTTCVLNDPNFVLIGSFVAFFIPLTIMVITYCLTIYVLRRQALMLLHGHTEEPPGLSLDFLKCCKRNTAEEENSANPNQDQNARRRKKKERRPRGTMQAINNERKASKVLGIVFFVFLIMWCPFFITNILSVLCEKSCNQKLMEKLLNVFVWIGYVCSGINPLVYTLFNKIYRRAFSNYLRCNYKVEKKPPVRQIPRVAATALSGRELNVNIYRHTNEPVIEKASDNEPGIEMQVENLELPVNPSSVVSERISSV
From the text: J Neurochem. 69: 1449 - 1458, 1997]. […] SB242084 is used as positive control.

human α2A receptor = molecular target: T4, human α2A receptor (Homo sapiens, UniProt P08913); experiment: Radioligand binding to adrenergic receptor α2A ([3H] MK-912, Sf9 membranes); settings: for nH: Receptor α2A
T4 construct: expressed in transfected cells; host or cells: Sf9
T4 sequence (P08913 1-465): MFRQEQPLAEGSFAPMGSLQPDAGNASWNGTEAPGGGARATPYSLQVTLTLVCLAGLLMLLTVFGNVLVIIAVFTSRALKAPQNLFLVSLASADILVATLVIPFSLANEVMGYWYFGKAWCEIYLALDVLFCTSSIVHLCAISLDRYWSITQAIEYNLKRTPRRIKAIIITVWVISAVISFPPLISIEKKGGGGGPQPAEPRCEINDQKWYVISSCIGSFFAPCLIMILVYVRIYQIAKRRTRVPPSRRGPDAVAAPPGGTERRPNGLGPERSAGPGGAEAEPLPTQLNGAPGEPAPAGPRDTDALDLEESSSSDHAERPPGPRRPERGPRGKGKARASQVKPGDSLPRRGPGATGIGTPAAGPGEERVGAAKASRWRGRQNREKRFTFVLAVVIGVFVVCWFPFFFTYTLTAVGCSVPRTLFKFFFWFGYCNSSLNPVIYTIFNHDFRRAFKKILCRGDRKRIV
From the text: For this purpose sDNA of human α2A receptor is expressed in Sf9 cells, as described in [Uhlen S, Porter AC and Neubig RR. […] J Pharmacol ExpTher. […] J Pharmacol ExpTher. […] Yohimbine is used as positive control.

human H2 receptor = molecular target: T5, human H2 receptor (Homo sapiens, UniProt P25021); experiment: Radioligand binding to histamine receptor H2 ([125I] Aminopotentidine, CHO-K1 membranes); settings: for inhibition at 10 µM: read-out: Histamine receptors, % inhibition H2
T5 construct: expressed in transfected cells; host or cells: CHO-K1
T5 sequence (P25021 whole entry): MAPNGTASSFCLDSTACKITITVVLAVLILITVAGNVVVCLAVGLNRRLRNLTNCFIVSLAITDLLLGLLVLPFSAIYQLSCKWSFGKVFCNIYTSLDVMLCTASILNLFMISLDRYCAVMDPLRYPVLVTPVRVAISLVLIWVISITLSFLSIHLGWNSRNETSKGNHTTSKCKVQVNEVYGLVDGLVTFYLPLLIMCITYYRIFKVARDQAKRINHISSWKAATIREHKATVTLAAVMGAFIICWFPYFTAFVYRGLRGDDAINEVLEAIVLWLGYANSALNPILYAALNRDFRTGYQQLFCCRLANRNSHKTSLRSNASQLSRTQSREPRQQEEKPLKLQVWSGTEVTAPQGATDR
From the text: Proc Natl Acad Sci USA. 87(5): 1658-1662, 1990]. […] Proc Natl Acad Sci USA. 87(5): 1658-1662, 1990]. […] Tiotidine is used as positive control.

[2] = molecular target: T6, serotonin receptor 5-HT1B (Rattus norvegicus, UniProt P28564); experiment: Radioligand binding to serotonin receptor 5-HT1B ([125I] cyanopindolol, rat brain cortex membranes)
T6 construct: membrane species are prepared from rat brains (Wistar) by homogenization of species of rat brain-cortices; from tissue; host or cells: rat (Wistar) brain cortex
T6 sequence (P28564 whole entry): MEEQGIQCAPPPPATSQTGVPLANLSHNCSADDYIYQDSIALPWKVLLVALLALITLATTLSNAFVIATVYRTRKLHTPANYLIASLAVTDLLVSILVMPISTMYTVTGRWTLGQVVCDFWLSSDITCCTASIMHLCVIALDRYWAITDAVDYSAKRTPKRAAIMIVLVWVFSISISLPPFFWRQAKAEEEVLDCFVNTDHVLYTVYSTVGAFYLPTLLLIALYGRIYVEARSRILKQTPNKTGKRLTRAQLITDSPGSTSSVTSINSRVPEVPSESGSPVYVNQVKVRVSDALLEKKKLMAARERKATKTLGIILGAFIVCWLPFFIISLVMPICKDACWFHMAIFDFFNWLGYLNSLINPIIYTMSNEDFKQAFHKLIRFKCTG
From the text: Serotonin is used as positive control.

[3] = molecular target: T7, recombinant human 5-HT2B receptor (Homo sapiens, UniProt P41595); experiment: Radioligand binding to serotonin receptor 5-HT2B ([3H] Lysergic acid diethylamide, CHO-K1 membranes)
T7 construct: expressed in transfected cells; host or cells: CHO-K1
T7 sequence (P41595 whole entry): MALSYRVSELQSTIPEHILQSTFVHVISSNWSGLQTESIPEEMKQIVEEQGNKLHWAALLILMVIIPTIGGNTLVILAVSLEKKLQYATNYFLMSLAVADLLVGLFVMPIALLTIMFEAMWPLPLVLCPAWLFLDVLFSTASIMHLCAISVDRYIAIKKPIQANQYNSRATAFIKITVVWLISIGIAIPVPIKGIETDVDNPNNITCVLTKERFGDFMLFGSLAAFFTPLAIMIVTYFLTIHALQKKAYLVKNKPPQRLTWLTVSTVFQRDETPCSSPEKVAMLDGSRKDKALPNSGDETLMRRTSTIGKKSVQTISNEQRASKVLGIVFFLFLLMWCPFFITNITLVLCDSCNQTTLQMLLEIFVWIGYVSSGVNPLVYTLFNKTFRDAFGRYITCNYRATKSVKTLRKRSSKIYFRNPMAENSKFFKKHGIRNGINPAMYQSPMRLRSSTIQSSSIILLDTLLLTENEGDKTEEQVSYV
Experimental: For this purpose membrane species are prepared from CHO-K1 cells comprising recombinant human 5-HT2B receptor by homogenization of recombinant cells in glass homogenizer with the subsequent separation of plasmatic membranes from cell nuclei, mitochondrias and cell wreckages by differential centrifugation. […] After incubation the samples are filtered in vacuo on glass-microfiber filters G/F (Millipor, USA), filters are washed three times with cold solution of medium and radioactivity is measured by scintillation counter MicroBeta 340 (Perkin Elmer, USA). […] Ketanserin is used as positive control. The tested compounds' binding to the receptor is determined by their ability to displace the radioligand and is expressed in percent of displacement (%I). Values of %I are calculated according to the following equation: %I = (TA-CA)/(TA-NA)*100, [formula] wherein: TA - is the overall radioactivity in the presence of radioligand only, CA - is the radioactivity in the presence of radioligand and tested compound and NA - is the radioactivity in the presence of radioligand and Serotonin (10 µM).

[4] = read-out: α-Adrenoceptor, % inhibition α1A
[5] = read-out: α-Adrenoceptor, % inhibition α1B
[6] = read-out: α-Adrenoceptor, % inhibition α2A

Row | Structure (SMILES) | inhibition at 10 µM (adrenergic receptor α1A; [4]) | % inhibition (imidazoline receptor I2; 10 µM ligand) | inhibition at 10 µM (adrenergic receptor α1B; [5]) | inhibition at 10 µM (human α2A receptor; [6]) | inhibition at 10 µM (human H2 receptor) | inhibition at 10 µM ([2]; read-out: 5-HT1B % inhibition) | IC50 (imidazoline receptor I2) | Ki (imidazoline receptor I2) | nH ([3]; 5-HT2B) | nH (adrenergic receptor α1A) | nH (adrenergic receptor α1B) | nH (human α2A receptor) | also measured
1 | Cc1ccc2c(c1)[C@@H]1CN(C)CCC[C@@H]1N2CCc1cccnc1 (relative stereo) [1.6.1(1)·3HCl] | 90% | 80% | 94% | 84% | 48% |  |  |  |  |  |  |  | inhibition at 1 µM ([1]; read-out: 5-HT2C % inhibition): 95%
2 | Cc1ccc2c(c1)[C@@H]1CN(C)CCC[C@@H]1N2CCc1ccc(C)nc1 (relative stereo) [1.6.1(2)·3HCl] |  | 80% | 93% | 82% | 66% | -6% |  |  |  |  |  |  | inhibition at 10 µM ([1]; read-out: 5-HT2C % inhibition): 4%; inhibition at 10 µM ([3]; read-out: 5-HT2B % inhibition): -2%
3 | Cc1ccc2c(c1)c1c(n2CCc2ccccc2)CCN(C)C1 [1.1.2(1-2)·HCl, 2,8-dimethyl-5-phenethyl-1,2,3,4-tetrahydro-1H-pyrido[4,3-b]indole hydrochloride] | 99% | 93% | 101% | 95% | 102% | 82% | 0.268 µM | 0.179 µM | 0,868 |  |  |  | inhibition at 10 µM ([3]; read-out: 5-HT2B % inhibition): 100%
4 | Cc1ccc(CCn2c3c(c4cc(C)ccc42)CN(C)CC3)cc1 [1.1.2(1-3), 2,8-dimethyl-5-[2-(4-methylphenyl)-ethyl]-1,2,3,4-tetrahydro-1H-pyrido[4,3-b]indole] |  | 93% |  |  |  |  |  |  |  | 1,26 | 1,13 | 1.12 | 5-HT1B % inhibition ([2]; 10 µM ligand): 59%; 5-HT2C % inhibition ([1]; 10 µM ligand): 98%; 5-HT2B % inhibition ([3]; 10 µM ligand): 95%
5 | Cc1ccc2c(c1)c1c(n2CCc2ccccn2)CCN(C)C1 [1.1.2(2-3)·2HCl] | 81% | 88% | 98% | 93% | 82% |  |  |  | 0.913 |  |  |  | inhibition at 1 µM ([2]; read-out: 5-HT1B % inhibition): 65%; inhibition at 1 µM ([1]; read-out: 5-HT2C % inhibition): 96%; inhibition at 1 µM ([3]; read-out: 5-HT2B % inhibition): 89%
6 | Cc1ccc2c(c1)c1c(n2CCc2ccc(C)nc2)CCN(C)C1 [1.1.2(4-2)·2HCl] |  | 98% |  |  |  |  | 0.31 µM | 0.21 µM |  | 1.12 | 1.54 | 0.828 | inhibition at 10 µM ([2]; 10 µM ligand, read-out: 5-HT1B % inhibition): 19%; inhibition at 10 µM (adrenergic receptor α1A; 10 µM ligand, read-out: α-Adrenoceptor, % inhibition α1A): 97%; inhibition at 10 µM (adrenergic receptor α1B; 10 µM ligand, read-out: α-Adrenoceptor, % inhibition α1B): 101%; inhibition at 10 µM ([1]; 10 µM ligand, read-out: 5-HT2C % inhibition): 76%; inhibition at 10 µM (human α2A receptor; 10 µM ligand, read-out: α-Adrenoceptor, % inhibition α2A): 95%; inhibition at 10 µM ([3]; 10 µM ligand, read-out: 5-HT2B % inhibition): 47%
7 | Cc1ccc2c(c1)c1c(n2CCc2ccccn2)CCCN(C)C1 [1.2.2(2-2)] |  | 80% |  |  |  |  |  |  |  |  |  |  | 5-HT1B % inhibition ([2]; 10 µM ligand): 6%; α-Adrenoceptor, % inhibition α1A (adrenergic receptor α1A; 10 µM ligand): 64%; α-Adrenoceptor, % inhibition α1B (adrenergic receptor α1B; 10 µM ligand): 80%; α-Adrenoceptor, % inhibition α2A (human α2A receptor; 10 µM ligand): 90%
8 | CN1CCc2c(c3ccccc3n2Cc2ccccc2)C1 [1.9(1)·1/2NDSA, bis-(5-benzyl-2-methyl-2,3,4,5-tetrahydro-1H-pyrido[4,3-b]indole) naphthalene-1,5-disulfonate] |  |  |  |  |  |  | 0.169 µM | 0.11 µM | 0.552 | 1,08 | 0,956 | 1,13 | inhibition at 0.3 µM ([2]; read-out: 5-HT1B % inhibition): 4%; inhibition at 1 µM (adrenergic receptor α1A; [4]): 67%; % inhibition (imidazoline receptor I2; 0.3 µM ligand): 87(0.3 µM) %; inhibition at 3 µM (adrenergic receptor α1B; [5]): 62%; nH [1]: 0.987; inhibition at 0.3 µM (human α2A receptor; [6]): 73%; IC50 ([3]; 5-HT2B): 0.0314 µM; Ki ([3]; 5-HT2B): 0.02 µM; Histamine receptors, % inhibition H2 (human H2 receptor; 10 µM ligand): 97%
9 | CN1CCc2c(c3ccccc3n2Cc2ccccc2)C1.Cl [1.9(1)·HCl, 5-benzyl-2-methyl-2,3,4,5-tetrahydro-1H-pyrido[4,3-b]indole hydrochloride] | 70% |  | 70% | 100% | 97% | 13% |  |  | 0.836 |  |  |  | % inhibition (imidazoline receptor I2; 3 µM ligand): 75 (3 µM) %; IC50 (imidazoline receptor I2; hydrochloride): 0.994 µM; Ki (imidazoline receptor I2; hydrochloride): 0.662 µM; nH [1]: 1.21; inhibition at 0.1 µM ([1]; read-out: 5-HT2C % inhibition): 79%; inhibition at 10 µM ([1]; read-out: 5-HT2C % inhibition): 97%; inhibition at 10 µM ([3]; read-out: 5-HT2B % inhibition, 10 µM ligand): 99%
